From PubChem BioAssay (NCI)
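The compound was tested at five concentrations on cells cultured in 96-well plates, with a 48-hour exposure period. At the GI50, growth is halved. TGI: total growth inhibition.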

Legend:
Assay in all cases: NCI tumour cell line growth inhibition, 48 h
[1] = tested on: HL-60(TB) leukemia
[2] = tested on: OVCAR-8 ovarian
[3] = tested on: UACC-62 melanoma
[4] = tested on: SF-295 CNS
[5] = tested on: OVCAR-3 ovarian
[6] = tested on: SK-MEL-28 melanoma
[7] = tested on: TK-10 renal
[8] = tested on: HT29 colon
[9] = tested on: EKVX NSCLC
[10] = tested on: SR leukemia
[11] = tested on: NCI-H522 lung
[12] = tested on: SNB-75 CNS
[13] = tested on: NCI-H23 lung
[14] = tested on: K-562 leukemia
[15] = tested on: SNB-19 CNS
[16] = tested on: A549 NSCLC
[17] = tested on: DU-145 prostate
[18] = tested on: HCT-116 colon
[19] = tested on: MALME-3M melanoma
[20] = tested on: MOLT-4 leukemia
[21] = tested on: NCI/ADR-RES ovarian
[22] = tested on: SF-539 CNS
[23] = tested on: SK-OV-3 ovarian
[24] = tested on: HCC-2998 colon
[25] = tested on: UACC-257 melanoma
[26] = tested on: IGROV1 ovarian
[27] = tested on: COLO 205 colon
[28] = tested on: HS 578T breast
[29] = tested on: UO-31 renal
[30] = tested on: 786-0 renal
[31] = tested on: HCT-15 colon
[32] = tested on: BT-549 breast
[33] = tested on: OVCAR-4 ovarian
[34] = tested on: CAKI-1 renal
[35] = tested on: SK-MEL-5 melanoma
[36] = tested on: KM12 colon
[37] = tested on: NCI-H460 lung
[38] = tested on: SW-620 colon
[39] = tested on: RXF 393 renal
[40] = tested on: SF-268 CNS
[41] = tested on: LOX IMVI melanoma
[42] = tested on: U251 CNS
[43] = tested on: T-47D breast
[44] = tested on: HOP-92 NSCLC
[45] = tested on: MCF7 breast
[46] = tested on: ACHN renal
[47] = tested on: HOP-62 NSCLC
[48] = tested on: RPMI-8226 leukemia
[49] = tested on: MDA-MB-231 breast
[50] = tested on: OVCAR-5 ovarian
[51] = tested on: MDA-N
[52] = tested on: SN12C renal
[53] = tested on: CCRF-CEM leukemia
[54] = tested on: NCI-H226 lung
[55] = tested on: MDA-MB-435
[56] = tested on: PC-3 prostate
[57] = tested on: A498 renal
[58] = tested on: M14 melanoma
[59] = tested on: SK-MEL-2 melanoma
[60] = tested on: KM20L2 colon

CC(C)(C)OC(=O)/N=C/c1c(O)c2ccccc2oc1=O
TGI [1]: > 100 µM
TGI [2]: > 100 µM
TGI [3]: > 100 µM
TGI [4]: > 100 µM
TGI [5]: > 100 µM
TGI [6]: > 100 µM
TGI [7]: 66.7 µM
TGI [8]: > 100 µM
TGI [9]: > 100 µM
TGI [10]: > 100 µM
TGI [11]: 0.0208 µM
TGI [12]: > 100 µM
TGI [13]: > 100 µM
TGI [14]: > 100 µM
TGI [15]: > 100 µM
TGI [16]: > 100 µM
TGI [17]: > 100 µM
TGI [18]: > 100 µM
TGI [19]: > 100 µM
TGI [20]: > 100 µM
TGI [21]: > 100 µM
TGI [22]: > 100 µM
TGI [23]: 0.0852 µM
TGI [24]: > 100 µM
TGI [25]: > 100 µM
TGI [26]: > 100 µM
TGI [27]: > 100 µM
TGI [28]: 65.9 µM
TGI [29]: > 100 µM
TGI [30]: > 100 µM
TGI [31]: > 100 µM
TGI [32]: > 100 µM
TGI [33]: > 100 µM
TGI [34]: 52.6 µM
TGI [35]: > 100 µM
TGI [36]: > 100 µM
TGI [37]: > 100 µM
TGI [38]: > 100 µM
TGI [39]: > 100 µM
TGI [40]: > 100 µM
TGI [41]: > 100 µM
TGI [42]: > 100 µM
TGI [43]: > 100 µM
TGI [44]: > 100 µM
TGI [45]: > 100 µM
TGI [46]: > 100 µM
TGI [47]: > 100 µM
TGI [48]: > 100 µM
TGI [49]: 86 µM
TGI [50]: > 100 µM
TGI [51]: > 100 µM
TGI [52]: > 100 µM
TGI [53]: > 100 µM
TGI [54]: 64.7 µM
TGI [55]: > 100 µM
TGI [56]: > 100 µM
TGI [57]: 78.5 µM
TGI [58]: > 100 µM
TGI [59]: 45.2 µM

O=C(/C=C(\[O-])c1ccccc1)CCCCCCC(=O)/C=C(\[O-])c1ccccc1.O=C(/C=C(\[O-])c1ccccc1)CCCCCCC(=O)/C=C(\[O-])c1ccccc1.O=C(/C=C(\[O-])c1ccccc1)CCCCCCC(=O)/C=C(\[O-])c1ccccc1.[Y+3].[Y+3]
GI50 [1]: 14 µM
TGI [1]: > 50 µM
GI50 [2]: 37.4 µM
TGI [2]: > 50 µM
GI50 [3]: 47.5 µM
TGI [3]: > 50 µM
GI50 [4]: > 50 µM
TGI [4]: > 50 µM
GI50 [5]: > 50 µM
TGI [5]: > 50 µM
GI50 [6]: > 50 µM
TGI [6]: > 50 µM
GI50 [7]: > 50 µM
TGI [7]: > 50 µM
GI50 [8]: > 50 µM
TGI [8]: > 50 µM
GI50 [9]: > 50 µM
TGI [9]: > 50 µM
GI50 [11]: 9.86 µM
TGI [11]: 37.9 µM
GI50 [12]: 8.98 µM
TGI [12]: 22.2 µM
GI50 [13]: 13.4 µM
TGI [13]: > 50 µM
GI50 [14]: 17.7 µM
TGI [14]: > 50 µM
GI50 [15]: 19 µM
TGI [15]: > 50 µM
GI50 [16]: > 50 µM
TGI [16]: > 50 µM
GI50 [18]: 14.9 µM
TGI [18]: > 50 µM
GI50 [19]: > 50 µM
TGI [19]: > 50 µM
GI50 [20]: 26.9 µM
TGI [20]: > 50 µM
GI50 [22]: 31.8 µM
TGI [22]: > 50 µM
GI50 [23]: > 50 µM
TGI [23]: > 50 µM
GI50 [24]: > 50 µM
TGI [24]: > 50 µM
GI50 [25]: 17.6 µM
TGI [25]: > 50 µM
GI50 [26]: > 50 µM
TGI [26]: > 50 µM
GI50 [27]: > 50 µM
TGI [27]: > 50 µM
GI50 [29]: > 50 µM
TGI [29]: > 50 µM
GI50 [60]: > 50 µM
TGI [60]: > 50 µM
GI50 [30]: 21.7 µM
TGI [30]: > 50 µM
GI50 [33]: 14.2 µM
TGI [33]: > 50 µM
GI50 [34]: > 50 µM
TGI [34]: > 50 µM
GI50 [35]: 34.8 µM
TGI [35]: > 50 µM
GI50 [36]: > 50 µM
TGI [36]: > 50 µM
GI50 [37]: > 50 µM
TGI [37]: > 50 µM
GI50 [38]: > 50 µM
TGI [38]: > 50 µM
GI50 [39]: 11 µM
TGI [39]: 37.4 µM
GI50 [40]: 41.5 µM
TGI [40]: > 50 µM
GI50 [41]: > 50 µM
TGI [41]: > 50 µM
GI50 [42]: 25.7 µM
TGI [42]: > 50 µM
GI50 [44]: 17 µM
TGI [44]: > 50 µM
GI50 [46]: 40.3 µM
TGI [46]: > 50 µM
GI50 [47]: 18.8 µM
TGI [47]: > 50 µM
GI50 [48]: 44.8 µM
TGI [48]: > 50 µM
GI50 [50]: > 50 µM
TGI [50]: > 50 µM
GI50 [52]: 47.3 µM
TGI [52]: > 50 µM
GI50 [54]: 39.2 µM
TGI [54]: > 50 µM
GI50 [57]: > 50 µM
TGI [57]: > 50 µM
GI50 [58]: > 50 µM
TGI [58]: > 50 µM
GI50 [59]: > 50 µM
TGI [59]: > 50 µM

NCCc1ccc(S(=O)(=O)O)cc1[N+](=O)[O-]
TGI [1]: > 100 µM
TGI [2]: > 100 µM
TGI [3]: > 100 µM
TGI [4]: > 100 µM
TGI [5]: > 100 µM
TGI [6]: > 100 µM
TGI [7]: > 100 µM
TGI [8]: > 100 µM
TGI [9]: > 100 µM
TGI [10]: > 100 µM
TGI [11]: > 100 µM
TGI [12]: > 100 µM
TGI [13]: > 100 µM
TGI [14]: > 100 µM
TGI [15]: > 100 µM
TGI [16]: > 100 µM
TGI [17]: > 100 µM
TGI [18]: > 100 µM
TGI [19]: > 100 µM
TGI [20]: > 32.4 µM
TGI [21]: > 100 µM
TGI [22]: > 100 µM
TGI [23]: > 100 µM
TGI [25]: > 100 µM
TGI [26]: > 100 µM
TGI [27]: > 100 µM
TGI [28]: > 100 µM
TGI [29]: > 100 µM
TGI [30]: > 100 µM
TGI [31]: > 100 µM
TGI [32]: > 100 µM
TGI [33]: > 100 µM
TGI [34]: > 100 µM
TGI [35]: > 100 µM
TGI [36]: > 100 µM
TGI [37]: > 100 µM
TGI [38]: > 100 µM
TGI [39]: > 100 µM
TGI [40]: > 100 µM
TGI [41]: > 100 µM
TGI [42]: > 100 µM
TGI [43]: > 100 µM
TGI [44]: > 100 µM
TGI [45]: > 100 µM
TGI [46]: > 100 µM
TGI [47]: > 100 µM
TGI [48]: > 100 µM
TGI [49]: > 100 µM
TGI [50]: > 100 µM
TGI [51]: > 100 µM
TGI [52]: > 100 µM
TGI [53]: > 100 µM
TGI [54]: > 100 µM
TGI [55]: > 100 µM
TGI [56]: > 100 µM
TGI [57]: > 100 µM
TGI [58]: > 100 µM
TGI [59]: > 100 µM
